Experiments:
HUVEC = assay: Antiproliferative activity against human HUVEC cells after 96 hrs by MTT assay; assay type: cell-based
HT-1080 = assay: Antiproliferative activity against human HT1080 cells after 96 hrs by MTT assay; assay type: functional, cell-based; conditions: HT-1080, 96 h
HepG2 = assay: Antiproliferative activity against human HepG2 cells after 96 hrs by MTT assay; assay type: functional, cell-based; conditions: HepG2, 96 h
Jurkat = assay: Antiproliferative activity against human Jurkat cells after 96 hrs by MTT assay; assay type: functional, cell-based
NCI-N87 = assay: Antiproliferative activity against human NCI-N87 cells after 96 hrs by MTT assay; assay type: functional, cell-based; conditions: NCI-N87, 96 h

SMILES	IC50 (HUVEC) [nM]	IC50 (HT-1080) [nM]	IC50 (HepG2) [nM]	IC50 (Jurkat) [nM]	IC50 (NCI-N87) [nM]
CO[C@@H]1[C@H](OC(=O)NC(=O)CCl)CC[C@]2(CO2)[C@H]1[C@@]1(C)O[C@@H]1CC=C(C)C [O-CHLOROACETYLCARBAMOYLFUMAGILLOL]	0.76	–	–	–	–
COc1cc([C@@H]2c3cc4c(cc3[C@@H](O[C@@H]3O[C@@H]5CO[C@@H](C)O[C@H]5[C@H](O)[C@H]3O)[C@H]3COC(=O)[C@H]23)OCO4)cc(OC)c1O [ETOPOSIDE]	–	750	–	–	–
COc1cccc2c1C(=O)c1c(O)c3c(c(O)c1C2=O)C[C@@](O)(C(=O)CO)C[C@@H]3O[C@H]1C[C@H](N)[C@H](O)[C@H](C)O1 [DOXORUBICIN]	30.3	–	19	37.5	420

Reference: ChEMBL document CHEMBL1759870, “Identification, structural properties and chelating capacity of miltipolone as a broad-spectrum inhibitor to cancer cells” (Eur J Med Chem, 2011)
